The values that follow come from EP4800018A1, “PAN-KRAS INHIBITOR AND USE THEREOF IN MEDICINES” (Betta Pharmaceuticals Co., Ltd., priority 2023, dated 2025).

The test system of this assay is KRAS-G12V mutant tumor cells SW620. The experiment in a line: Cell Proliferation Inhibition Assay (SW620), Cell-titer GLO, 96 h. Particulars: Homo sapiens, SW-620, 96 h, SW620 cells, 96 h incubation, Cell-titer GLO; read-out: SW620(G12V). The format is cell-based. A digest of the protocol:
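SW620 cells (1×10^3/well, low-attachment) were exposed to compound from 10000 to 0.03 nM (0.5% DMSO) for 96 h at 37°C. Viability was read by Cell-titer GLO luminescence. Inhibition was calculated relative to DMSO and blank wells, and IC50 obtained by curve fitting.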

As for `CC1OCCCn2c(c3c4cc(ccc42)-c2csc(n2)CC(NC(=O)C2C(C)C2C)C(=O)N2NC(C(=O)OCC(C)(C)C3)C3CC2C3)-c2cc(N3CCN(C)CC3)cnc21` [Example 186, (1r,2R,3S)-2,3-dimethyl-N-((1^5S,6^4S,4S,Z)-1^5,10,10-trimethyl-1^2-(4-methylpiperazin-1-yl)-5,7-dioxo-1^8,1^9-dihydro-1^5H,1^7H-8-oxa-6^2,6^3-diaza-1(13,15)-pyrido[3',2':7,8][1,5]oxazonino[5,6-a]indola-2(4,2)-thiazola-6(2,4)-bicyclo[3.1.1]heptanacycloundecaphane-4-yl)cyclopropane-1-carbox amide], the IC50 was determined as 0.15 nM.
